Test results reported in ChEMBL document CHEMBL1153372, “A selective matrix metalloprotease 12 inhibitor for potential treatment of chronic obstructive pulmonary disease (COPD): discovery of (S)-2-(8-(methoxycarbonylamino)dibenzo[b,d]furan-3-sulfonamido)-3-methylbutanoic acid (MMP408)” (J Med Chem, 2009).

Legend:
[1] = Volume of distribution at steady state in C57BL/6 mouse at 2 mg/kg, iv; type: ADME, organism-based; design: dose 2 mg/kg, route intravenous; conditions: in vivo, read-out: Vdss
[2] = Cmax in C57BL/6 mouse at 30 mg/kg, po; type: ADME, organism-based; design: dose 30 mg/kg, route oral; conditions: in vivo
[3] = AUC in C57BL/6 mouse at 30 mg/kg, po; type: ADME, organism-based; design: dose 30 mg/kg, route oral; conditions: plasma
[4] = Oral bioavailability in C57BL/6 mouse at 30 mg/kg; type: ADME, organism-based; conditions: in vivo
Collagenase 3 = Collagenase 3 (Homo sapiens, UniProt P45452); assay: Inhibition of human recombinant MMP13 expressed in Escherichia coli
[5] = Clearance in C57BL/6 mouse at 2 mg/kg, iv; type: ADME, organism-based; design: dose 2 mg/kg, route intravenous; conditions: in vivo
[6] = Half life in C57BL/6 mouse at 30 mg/kg, po; type: ADME, organism-based; design: dose 30 mg/kg, route oral; conditions: in vivo

SMILES	IC50 (Collagenase 3) [nM]	also measured
CCOC(=O)Nc1ccc2oc3cc(S(=O)(=O)N[C@H](C(=O)O)C(C)C)ccc3c2c1	100	Vd [1]: 1.6 L/kg; Cmax [2]: 7790 ng/mL; AUC [3]: 10800 ng·h/mL; bioavailability [4]: 42%; clearance [5]: 19 mL/min/kg; half-life [6]: 3.4 h
CC(C)[C@H](NS(=O)(=O)c1ccc2oc3ccccc3c2c1)C(=O)O	25000	–
CCCOC(=O)Nc1ccc2oc3cc(S(=O)(=O)N[C@H](C(=O)O)C(C)C)ccc3c2c1	10	–
COC(=O)Nc1ccc2c(c1)oc1cc(S(=O)(=O)N[C@H](C(=O)O)C(C)C)ccc12	> 1000	–
CC(C)[C@H](NS(=O)(=O)c1ccc2c(c1)oc1ccc(NC(=O)NC3CCCC3)cc12)C(=O)O	2.1	–
CC(C)[C@H](NS(=O)(=O)c1ccc2c(c1)oc1ccc(NS(C)(=O)=O)cc12)C(=O)O	93	–
Cc1noc(C)c1S(=O)(=O)Nc1ccc2c(c1)oc1ccc(S(=O)(=O)N[C@@H](C(=O)O)C(C)C)cc12	34000	–
CC(C)[C@H](NS(=O)(=O)c1ccc2c(c1)oc1ccc(NS(=O)(=O)CC(F)(F)F)cc12)C(=O)O	670	–
CC(C)[C@H](NS(=O)(=O)c1ccc2c(c1)oc1ccc(NC(N)=O)cc12)C(=O)O	59	–
CC(C)[C@@H](NS(=O)(=O)c1ccc2oc3cc(NS(=O)(=O)C(C)C)ccc3c2c1)C(=O)O	120	–
CC(C)[C@H](NS(=O)(=O)c1ccc2c(c1)oc1ccc(NC(=O)NCCc3cccs3)cc12)C(=O)O	1.1	Vd [1]: 15.6 L/kg; clearance [5]: 211 mL/min/kg
CC(C)COC(=O)Nc1ccc2oc3cc(S(=O)(=O)N[C@H](C(=O)O)C(C)C)ccc3c2c1	10	–
COC(=O)Nc1cc2oc3ccc(S(=O)(=O)N[C@H](C(=O)O)C(C)C)cc3c2cc1Br	> 25000	–
CC(C)[C@H](NS(=O)(=O)c1ccc2c(c1)oc1cc(NC(=O)OCCF)ccc12)C(=O)O	97	–
Cc1ccc(OC(=O)Nc2ccc3oc4cc(S(=O)(=O)N[C@H](C(=O)O)C(C)C)ccc4c3c2)cc1	100	–
